# Assay results published in ChEMBL document CHEMBL3779780, “Chroman-4-one and chromone based somatostatin β-turn mimetics” (Eur J Med Chem, 2016).
# Assays:
# [1] = target: T1, Somatostatin receptor type 2 (Homo sapiens, UniProt P30874); assay: Displacement of [125I]tyr11-SRIF from human sst2 receptor after 60 mins by liquid scintillation counting method
# [2] = target: T2, Somatostatin receptor type 4 (Homo sapiens, UniProt P31391); assay: Displacement of [125I]tyr11-SRIF from human sst4 receptor after 60 mins by liquid scintillation counting method
# [3] = target: T2, Somatostatin receptor type 4; assay: Displacement of [125I]-SRIF14 from human sst4 receptor
# [4] = target: T2, Somatostatin receptor type 4; assay: Binding affinity to human sst4 receptor
# [5] = target: T1, Somatostatin receptor type 2; assay: Binding affinity to human sst2 receptor
# T1 sequence (P30874 whole entry): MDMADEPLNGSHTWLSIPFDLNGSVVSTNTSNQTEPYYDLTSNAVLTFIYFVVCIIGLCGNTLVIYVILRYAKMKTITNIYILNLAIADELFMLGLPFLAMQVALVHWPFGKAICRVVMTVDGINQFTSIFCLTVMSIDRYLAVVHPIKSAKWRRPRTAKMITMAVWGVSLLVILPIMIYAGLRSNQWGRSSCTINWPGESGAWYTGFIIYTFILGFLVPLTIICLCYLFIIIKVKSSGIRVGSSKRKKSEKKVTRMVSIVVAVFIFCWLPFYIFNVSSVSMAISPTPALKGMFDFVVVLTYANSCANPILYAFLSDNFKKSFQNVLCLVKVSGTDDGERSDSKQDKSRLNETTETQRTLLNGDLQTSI
# T2 sequence (P31391 whole entry): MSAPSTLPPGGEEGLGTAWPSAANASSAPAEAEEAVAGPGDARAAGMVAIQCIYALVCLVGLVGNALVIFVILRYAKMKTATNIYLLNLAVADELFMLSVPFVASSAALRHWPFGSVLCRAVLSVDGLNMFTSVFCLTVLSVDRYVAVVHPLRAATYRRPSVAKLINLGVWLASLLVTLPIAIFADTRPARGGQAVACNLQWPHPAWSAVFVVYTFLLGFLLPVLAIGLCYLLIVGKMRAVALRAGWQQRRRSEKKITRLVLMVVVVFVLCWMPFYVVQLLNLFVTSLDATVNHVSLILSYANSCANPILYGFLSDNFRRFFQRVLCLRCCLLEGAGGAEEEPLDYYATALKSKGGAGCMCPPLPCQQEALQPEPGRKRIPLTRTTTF
Ki [1],Ki [2],Ki [3],Ki [4],Ki [5],SMILES
6.85 µM,7.09 µM,,,,NCCCc1cc(Cl)cc2c1OC(CCc1cccc3ccccc13)CC2=O (racemic)
2.66 µM,1.17 µM,,,,NCCCc1cc(Cl)cc2c(=O)cc(CCc3cccc4ccccc34)oc12
,,2050 nM,,,CC(C)CC[C@]1(Cc2ccccc2)NC=C([C@@]2(Cc3ccccc3)NC=C([C@]3(CCCN)NC=C([C@@]4(CC(C)C)NC=C(Cc5ccccc5)C4=O)C3=O)C2=O)C1=O
,,,2020 nM,4.69 µM,NCCCCCOc1ccccc1OCCc1c[nH]c2ccccc12
